Earlier results as cited in US6521593B1, “Methods for inhibiting brain tumor growth” (Childrens Hospital Los Angeles, priority 1999, dated 2003).

System: C6 and 9L rat glioma xenografts
Conditions: 1 mg/mouse/day; cited from earlier work

In the case of Angiostatin, the “growth inhibition of intracranial glioma xenografts” value is given as “considerable growth inhibition”.
